Laboratory results published in US12156880B2, “Heterocyclic RIP1 kinase inhibitors” (Rigel Pharmaceuticals, Inc., priority 2021, dated 2024).

Tests used:
RIPK1 = molecular target: T1, RIPK1 (Homo sapiens, UniProt Q13546); assay: RIPK1 ADP-Glo biochemical kinase assay; conditions: read-out: RIPK1 ADP-Glo Kinase (IC50)
T1 sequence (Q13546 1-671): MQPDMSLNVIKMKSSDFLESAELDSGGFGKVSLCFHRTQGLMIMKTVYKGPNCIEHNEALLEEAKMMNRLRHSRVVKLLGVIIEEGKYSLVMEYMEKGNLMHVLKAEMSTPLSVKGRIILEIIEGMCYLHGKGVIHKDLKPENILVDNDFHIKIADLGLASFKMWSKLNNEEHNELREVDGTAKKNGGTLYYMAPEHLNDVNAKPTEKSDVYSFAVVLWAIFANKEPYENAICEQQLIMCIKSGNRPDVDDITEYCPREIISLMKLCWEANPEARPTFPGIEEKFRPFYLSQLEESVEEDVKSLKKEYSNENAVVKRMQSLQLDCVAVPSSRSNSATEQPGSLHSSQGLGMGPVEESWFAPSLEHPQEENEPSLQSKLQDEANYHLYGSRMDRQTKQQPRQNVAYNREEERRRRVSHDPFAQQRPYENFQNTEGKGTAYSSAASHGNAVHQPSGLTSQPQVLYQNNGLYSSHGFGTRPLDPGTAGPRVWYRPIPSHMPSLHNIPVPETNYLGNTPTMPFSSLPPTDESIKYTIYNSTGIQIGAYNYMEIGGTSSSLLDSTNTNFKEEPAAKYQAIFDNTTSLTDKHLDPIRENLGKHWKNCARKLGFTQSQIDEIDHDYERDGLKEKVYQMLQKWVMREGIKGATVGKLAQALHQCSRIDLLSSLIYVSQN
Outline: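 RIPK1 at 31 ng/well in Tris pH 7.4 buffer with MgCl2, BSA, DTT and MnCl2, reacted with compounds (duplicate) for 30 min at 30 °C. ADP formed detected by ADP-Glo: 40 min stop/depletion, then 30 min detection reagent at room temperature; luminescence read.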

U937 cells = assay: U937 cell necroptosis assay (TNFa + zVAD, CellTiter-Glo recovery); format: cell-based; conditions: Homo sapiens, U-937, 18 h, TNFa 2 ng/mL + zVAD-fmk, read-out: U937 Zvad TNF CTG Recovery, U937, TNFa + zVAD (IC50)
Outline: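 Human U937 (50K/well, 60 uM zVAD-fmk medium, plated same day) or murine L929 (10K/well, plated 18 h, then 40 uM zVAD-fmk medium) were grown in RPMI with 10% FBS. Both were pretreated with compound for 1 h at 37 °C before TNFa at 2 ng/mL final. Viability was read by CellTiter-Glo luminescence after 18 h.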

L929 cells = assay: L929 cell necroptosis assay (TNFa + zVAD, CellTiter-Glo recovery); format: cell-based, murine; conditions: Mus musculus, L929, 18 h, TNFa 2 ng/mL + zVAD-fmk, read-out: L929-CTG-recovery, L929, TNFa + zVAD (IC50)
Method: In this example, U937 and L929 cells were exposed to compounds of the present disclosure and a cell necroptosis assay was conducted to evaluate the compounds' activity against human RIP1 and murine RIP1.
U937 and L929 cells were obtained from the American Type Culture Collection (Manassas, VA, USA). Both cells were maintained in logarithmic growth phase in complete RPMI 1640 media (Sigma, ST Louis, MO, USA) supplemented with 10% fetal bovine serum (Sigma, ST Louis, MO, USA) at 37° C. with 5% CO2. For necroptosis assay, L929 cells were plated for 18 h in 100 μL/well medium at 10K cells/well in Costar 96-well black clear-bottom plates (Fisher Scientific, Hampton, NH, USA); U937 cells were plated on the day of the assay in 50 μL/well medium containing 60 uM zVAD-fmk (Lonza, Basel, Switzerland) at 50K cells/well. Medium from L929 cells were removed from the 96-well plates and replaced with 50 μL/well new medium containing 40 uM zVAD-fmk. Each compound of the present disclosure evaluated in this example was serially diluted in DMSO from 2.5 mM in 4-fold dilutions, and then diluted 1:125 in complete medium. 50 μL/well 2× of the compound was then added to the cells in the plates. The cells were pre-incubated with the compound for 1 hour at 37° C. with 5% CO2 and before addition of 10 μL/well 11×TNFa (Peprotech, Rocky Hill, NJ, USA) to give a final concentration of 2 ng/mL for TNFa. The relative amount of necroptosis cells was determined by luminescent using a Wallac Victor2 Luminometer (PerkinElmer, Waltham, MA, USA) and a CellTiter-Glo® Luminescent Cell Viability Reagent Assay (Promega, Madison, WI, USA) added per manufacturer instructions after 18 hours of TNFa stimulation at 37° C. with 5% CO2. This example establishes that embodiments of the compounds described herein have unexpectedly potent activity against human RIP1 and murine RIP1, which allows their assessment in in vivo mouse models of disease.

Structure (SMILES)	IC50 (RIPK1) [nM]	IC50 (U937 cells) [nM]	IC50 (L929 cells) [nM]
CN1C(=O)[C@@H](NC(=O)n2cc(Cc3cccnc3F)cn2)COc2ccc(Br)cc21 [I-42, (S)—N-(7-Bromo-5-methyl-4-oxo-2,3,4,5-tetrahydrobenzo[b][1,4]oxazepin-3-yl)-4-((2-fluoropyridin-3-yl)methyl)-1H-pyrazole-1-carboxamide]	18.2	58.6	28400
CN1C(=O)[C@@H](NC(=O)n2cc(Cc3cccnc3F)cn2)COc2ccc(C#CC3(O)CCC3)cc21 [I-48, (S)-4-((2-Fluoropyridin-3-yl)methyl)-N-(7-((1-hydroxycyclobutyl)ethynyl)-5-methyl-4-oxo-2,3,4,5-tetrahydrobenzo[b][1,4]oxazepin-3-yl)-1H-pyrazole-1-carboxamide]	646	24.9	1470
CN1C(=O)[C@@H](NC(=O)c2cc(Cc3cocn3)ccn2)COc2ccc(C#CC(C)(C)O)cc21 [I-137, (S)—N-(7-(3-hydroxy-3-methylbut-1-yn-1-yl)-5-methyl-4-oxo-2,3,4,5-tetrahydrobenzo[b][1,4]oxazepin-3-yl)-4-(oxazol-4-ylmethyl)picolinamide]	11.9	25.5	87.4
CN1C(=O)[C@@H](NC(=O)c2cc(Oc3ccc(F)nc3)ccn2)COc2ccc(C#CC3(O)COC3)cc21 [I-5, (S)-4-((6-fluoropyridin-3-yl)oxy)-N-(7-((3-hydroxyoxetan-3-yl)ethynyl)-5-methyl-4-oxo-2,3,4,5-tetrahydrobenzo[b][1,4]oxazepin-3-yl)picolinamide]	24.6	34.9	2020
CN1C(=O)[C@@H](NC(=O)c2cc(Cc3cccc(C#N)n3)ccn2)COc2ccc(C#CC3(O)COC3)cc21 [I-94, (S)-4-((6-cyanopyridin-2-yl)methyl)-N-(7-((3-hydroxyoxetan-3-yl)ethynyl)-5-methyl-4-oxo-2,3,4,5-tetrahydrobenzo[b][1,4]oxazepin-3-yl)picolinamide]	18	23.7	3790
CN1C(=O)[C@@H](NC(=O)c2cc(Cc3cccnc3)ccn2)COc2ccc(C#CC(C)(C)O)cc21 [I-61, (S)—N-(7-(3-hydroxy-3-methylbut-1-yn-1-yl)-5-methyl-4-oxo-2,3,4,5-tetrahydrobenzo[b][1,4]oxazepin-3-yl)-4-(pyridin-3-ylmethyl)picolinamide]	24.3	19.2	2420
CN1C(=O)[C@@H](NC(=O)c2cc(Oc3cccnc3C#N)ccn2)COc2ccc(C#CC3(O)COC3)cc21 [I-92, (S)-4-((2-cyanopyridin-3-yl)oxy)-N-(7-((3-hydroxyoxetan-3-yl)ethynyl)-5-methyl-4-oxo-2,3,4,5-tetrahydrobenzo[b][1,4]oxazepin-3-yl)picolinamide]	20.8	158	7870
CN1C(=O)[C@@H](NC(=O)n2cc(Cc3cccc(F)n3)cn2)CCc2ccc(C#CC3(O)CCOCC3)cc21 [I-116, (S)-4-((6-Fluoropyridin-2-yl)methyl)-N-(8-((4-hydroxytetrahydro-2H-pyran-4-yl)ethynyl)-1-methyl-2-oxo-2,3,4,5-tetrahydro-1H-benzo[b]azepin-3-yl)-1H-pyrazole-1-carboxamide]	12.9	0.5	69.4
CN1C(=O)[C@@H](NC(=O)n2cc(Cc3cccc(F)n3)cn2)CCc2ccc(Br)cc21 [I-35, (S)—N-(8-Bromo-1-methyl-2-oxo-2,3,4,5-tetrahydro-1H-benzo[b]azepin-3-yl)-4-((6-fluoropyridin-2-yl)methyl)-1H-pyrazole-1-carboxamide]	19.4	70	6860
CN1C(=O)[C@@H](NC(=O)c2cc(Oc3cccnc3F)ccn2)COc2ccc(C#CC3(O)COC3)cc21 [I-56, (S)-4-((2-fluoropyridin-3-yl)oxy)-N-(7-((3-hydroxyoxetan-3-yl)ethynyl)-5-methyl-4-oxo-2,3,4,5-tetrahydrobenzo[b][1,4]oxazepin-3-yl)picolinamide]	10.5	2.9	275
Cc1cccc(Cc2cnn(C(=O)N[C@H]3CCc4ccc(Br)cc4N(C)C3=O)c2)n1 [I-118, (S)—N-(8-Bromo-1-methyl-2-oxo-2,3,4,5-tetrahydro-1H-benzo[b]azepin-3-yl)-4-((6-methylpyridin-2-yl)methyl)-1H-pyrazole-1-carboxamide]	38.4	256	7670
CN1C(=O)[C@@H](NC(=O)c2cc(Cc3cccc(C#N)n3)ccn2)COc2ccc(C#CC(C)(C)O)cc21 [I-93, (S)-4-((6-cyanopyridin-2-yl)methyl)-N-(7-(3-hydroxy-3-methylbut-1-yn-1-yl)-5-methyl-4-oxo-2,3,4,5-tetrahydrobenzo[b][1,4]oxazepin-3-yl)picolinamide]	29.9	52.2	5670
Cc1nc(Cc2ccnc(C(=O)N[C@H]3COc4ccc(C#CC5CCOCC5)cc4N(C)C3=O)c2)cs1 [I-90, (S)—N-(5-methyl-4-oxo-7-((tetrahydro-2H-pyran-4-yl)ethynyl)-2,3,4,5-tetrahydrobenzo[b][1,4]oxazepin-3-yl)-4-((2-methylthiazol-4-yl)methyl)picolinamide]	20	1.9	20.5
CN1C(=O)[C@@H](NC(=O)n2cc(Cc3cccc(F)n3)cn2)COc2ccc(C#CC3CCOCC3)cc21 [I-34, (S)-4-((6-Fluoropyridin-2-yl)methyl)-N-(5-methyl-4-oxo-7-((tetrahydro-2H-pyran-4-yl)ethynyl)-2,3,4,5-tetrahydrobenzo[b][1,4]oxazepin-3-yl)-1H-pyrazole-1-carboxamide]	15.3	1.3	68.1
CN1C(=O)[C@@H](NC(=O)c2cc(Cc3cccc(F)n3)ccn2)COc2ccc(C#CC(C)(C)O)cc21 [I-13, (S)-4-((6-fluoropyridin-2-yl)methyl)-N-(7-(3-hydroxy-3-methylbut-1-yn-1-yl)-5-methyl-4-oxo-2,3,4,5-tetrahydrobenzo[b][1,4]oxazepin-3-yl)picolinamide]	21.2	42	1310
Cc1cccc(Cc2cnn(C(=O)N[C@H]3COc4ccc(C#CC(C)(C)O)cc4N(C)C3=O)c2)n1 [I-2, (S)—N-(7-(3-Hydroxy-3-methylbut-1-yn-1-yl)-5-methyl-4-oxo-2,3,4,5-tetrahydrobenzo[b][1,4]oxazepin-3-yl)-4-((6-methylpyridin-2-yl)methyl)-1H-pyrazole-1-carboxamide]	42.2	49.7	1800
CN1C(=O)[C@@H](NC(=O)c2cc(Cc3cccc(F)n3)ccn2)COc2ccc(C#CC3(O)COC3)cc21 [I-7, (S)-4-((6-fluoropyridin-2-yl)methyl)-N-(7-((3-hydroxyoxetan-3-yl)ethynyl)-5-methyl-4-oxo-2,3,4,5-tetrahydrobenzo[b][1,4]oxazepin-3-yl)picolinamide]	18.6	14.8	449
